Measurements published in patent US7476729B2, “Dbait and uses thereof” (Institut Curie, priority 2003, dated 2009).

Columns and labels:
[1] = test system: digestive tumors induced in K-Ras^V12G×Apc^1638N transgenic mice; test: Chemosensitization of digestive tumors in K-Ras^V12G×Apc^1638N transgenic mice; type: in vivo
Source text: An endogenous mouse tumor model was chosen to assess the ability of Dbait molecules to sensitize anticancer chemotherapy. To this end, transgenic mice carrying K-Ras^V12G and Apc^1638N mutations were used. They were obtained by breeding two transgenic mice: one carries K-Ras^V12G mutant under the control of the mouse villin promoter(pVill/K-Ras^V12G) (Janssen et al., 2002), the other contains Apc^1638N mutation in one allele (Fodde et al., 1994). Transgenic mice with pVill/K-Ras^V12G×Apc^1638N mutations developed spontaneous tumors in the digestive tract at the age of about 5 months and died rapidly.
They were treated at the mean age of 12 weeks by a combination of chemotherapy (5FU+CPT11) and of Dbait32H (SEQ ID NO: 1) versus chemotherapy alone, according to the protocol shown in FIG. 5.1 panel A. The protocol includes three treatment cycles.
Each cycle consists of intraperitoneal injection of 0.6 mg 5FU and 0.6 mg CPT11, along with 0.1 mg Dbait32H (SEQ ID NO: 1) by oral administration, three times a week, followed by one week rest.
5FU (5 fluorouracile, Teva) was prepared in 0.9% NaCl solution at the concentration of 50 mg/ml. CPT11/Irinotecan (Campto, Aventis) was prepared in 0.9% NaCl solution at the concentration of 20 mg/ml. The health status and survival of the mice were monitored till the death. […]

[2] = test system: U87 xenografted human glioblastoma; test: Radiosensitization of xenografted human glioblastoma (U87) on nude mice; type: in vivo; conditions: for Number of mice where Tumor volume <4 cm^3 At the day 25 (6 mice per group): 1 nmole/intratumoral injection, total 30 Gy
Source text: Radio-sensitization was also observed in mice xenografted with human glioblastoma tumors. The glioblastoma is the highest grade of brain-tumor, and is characterized by its extraordinary aggressive progression with fast fatal outcome and resistance to radio- and chemotherapies. 2-3 millions of U87 cells derived from human glioblastoma was first injected subcutaneously in nude mouse. The grafted tumor was then took out and used to seed subsequently other nude mice by subcutaneous transplant of about 8 mm^3 glioblastoma tumor.
50% mice in the arm which received Dbait32H (SEQ ID NO: 1) (1 nmole) by intratumoral injection and irradiation (1×15 Gy/week or 3×5 Gy/week, followed by one week rest, then second treatment cycle, the total dose of ionizing radiation was 30 Gy) had tumor volume<4 cm^3 at the day 25 after the start of treatment, whereas 100% mice in the control arms (untreated or irradiated and injected with saline solution (PBS) had tumor volume well exceeded 4 cm^3, and were killed before the end of the assay according to current regulation on animal ethics before the end of the treatment.
Table 3.1: Assay of radiosensitization of xenografted human glioblastoma on nude mice by Dbait32H (SEQ ID NO: 1) (1 nmole/intratumoral injection) previously named DRIL32-PEG. Two protocols of irradiation (5 hours after intratumoral injection) were used: 1×15 Gy/week, or 3×5 Gy/week, followed by one week rest, the second treatment cycle. The total irradiation dose was 30 Gy. Control groups were the untreated or the groups received saline solution (PBS) injection.

GMA32 cells = test: Clonogenicity (clonal survival) assay in GMA32 cells with irradiation or mitotic inhibitors; type: cell-based, Chinese hamster
Protocol: The GMA32 Chinese hamster fibroblast cells permissive of DNA breaks were maintained in MEM medium (Gibco) supplemented with 1 mM sodium pyruvate, 2 mM glutamine, 1×MEM non essential amino acids, 1× penicillin/streptomycin and 10% horse serum. Typically, 2×10^5 to 4×10^5 cells were seeded in medium without antibiotics, in 5 cm diameter Petri dishes 24 hours before the transfection of different Dbait molecules (4.5 μg) with lipofectamine 2000 (LifeTechnologies) as transfection agent (in a 1:3 ratio), according to the manufacturer's instructions. At the end of the transfection the cells were either irradiated (4 Gy) or treated with mitotic inhibitors: nocodazole (200 nM), navelbine (100 nM) or taxol (200 nM).
About 16 hour later the drug was removed and the cells were allowed to recover. Cell irradiation was performed with γ-rays from a ^137Cs source. After a 24 hours recovery, the cells were collected and used either for FACS, western blot analyses or to determine the clonogenicity (survival) and the effect of each treatment.
The effect of radiosensitization and chemosensitization of Dbait molecules in GMA32 cells was evaluated by clonogenicity (clonal survival) assay. For the clonogenicity assay, serial dilutions were made after counting the cells to seed 5 cm Petri dishes with different amounts of cells. The number of cells range from 100-200 (control cells) to 3000 (transfected or/and treated cells). Ten days after, the cells (forming clone) were fixed with 4% paraformaldehyde (20 minutes), then colored with methylene blue (15 minutes), and the number of clone in each plate (in triplicates) was scored.
These drugs are known as potent inhibitors of either polymerization or depolymerization of microtubules. Dbait32 (SEQ ID NO: 1) and Dait32H (SEQ ID NO: 1) were able to enhance to cytotoxic activity of these mitotic inhibitors.

Dbait32H: hairpin double strand DNA with a stem of 32-bp, hexaethyleneglycol linker, phosphorothioate at the free blunt end (DNA ACGCACGGGTGTTGGGTCGTTTGTTCGGATCT; DNA, backbone not given here; hairpin, hexaethyleneglycol loop, 3-bp phosphorothioate at free blunt end)
median survival ([1]; 0.1 mg Dbait32H oral with 0.6 mg 5FU and 0.6 mg CPT11 i.p., three times a week, three cycles): 226 days
reduction of tumor numbers (macroscopy and histology) ([1]; 5FU+CPT11 and Dbait32H (n=8) versus chemotherapy alone (n=7), week 18): > 30%
mice with tumor volume<4 cm^3 at the day 25 ([2]; 1 nmole intratumoral and irradiation (1×15 Gy/week or 3×5 Gy/week)): 50%
Number of mice where Tumor volume <4 cm^3 At the day 25 (6 mice per group) ([2]; 1 × 15 Gy/week): 3/6
Number of mice where Tumor volume <4 cm^3 At the day 25 (6 mice per group) ([2]; 3 × 5 Gy/week): 3/6
chemosensitization (clonal survival) (GMA32 cells; GMA32, 200 nM nocodazole, 100 nM navelbine (vinorelbine) or 200 nM taxol (paclitaxel)): chemosensitization was also observed
radiosensitization (clonal survival) (GMA32 cells; GMA32, 4 Gy irradiation): radiosensitization to 4 Gy irradiation was observed
